Reference: patent US10512667B2, “Compositions and methods for treating conditions related to adrenocortical activity and/or excessive steroid production” (The Regents of the University of Michigan, priority 2017, dated 2019)
“Also recorded” adds a separate entry of the source.

Columns and labels:
H295R cells [1] = assay: Visualization of cholesterol levels by filipin III binding; assay type: cell-based; conditions: for cholesterol level (filipin III binding), compound alone: serum-free medium containing apoA-I, 4 h
Experimental: The cells were seeded in 96-well ibiTreat μ-Plates and allowed to adhere for 48 h prior to the start of each experiment. Cholesterol was detected in fixed cells by incubating with 100 μg/ml filipin III at 37 C for 2 h. […] Images were captured using either a 4× or a 60× objective. Cholesterol esterification was visualized by culturing the cells with 1 μM NBD-cholesterol for 2 h following incubation with the indicated compounds. […] Images were captured using either a 20× or a 60× objective.
The medium was removed and immediately replaced with 100 μl of 4% paraformaldehyde and the cells were fixed at room temperature for 20 min. The cells were washed twice with 200 μl PBS. […] The fixed cells were incubated with filipin III at 37 C in the dark for 2 h.

H295R cells [2] = assay: Cellular ATP level (CellTiter-Glo); conditions: for ATP level in combination with ATR-101 versus separately: compound together with ATR-101 at concentrations not cytotoxic separately; for ATP level, compound alone: serum-free medium; for ATP depletion at high concentrations of inhibitors of steroidogenesis: alone and in combination with ATR-101, 4 h;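 as to all read-outs here: ATP quantified by luminescence after lysing the cells in CellTiter-Glo reagent, with compound exposure at 37 °C under 5% CO2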
H295R cells [3] = assay: Cholesterol efflux into serum-free medium with apoA1; assay type: cell-based; conditions: serum-free medium containing apoA-I
Experimental: Cholesterol efflux was measured by replacing the culture medium with serum-free medium supplemented with 5 μg/ml apoA1 (Sigma) and the indicated compounds. After the indicated time, the serum-free medium was collected, and the cholesterol concentration was measured using the fluorometric enzyme-linked assay (Cayman Chemical).
After 48 h, the medium was removed and replaced with 50 μl serum-free medium supplemented with 5 μg/mL apoA1. After the indicated time, the supernatant containing the effluxed cholesterol, was transferred to a new 96-well plate. A cholesterol detection reagent (Cayman Chemical) consisting of cholesterol assay buffer, cholesterol assay detector (10-acetyl-3,7-dihydroxyphenoxazine [ADHP]), horseradish peroxidase, cholesterol oxidase, and cholesterol esterase was added, and the reactions were incubated for 30 min at 37 C. The fluorescence intensities were measured using ex. […] 590 nm. The cholesterol concentrations were calculated by interpolation between the values produced by cholesterol standards that were analyzed in parallel.

H295R cells [4] = assay: Cortisol secretion (indirect ELISA); assay type: cell-based
Experimental: Cortisol secretion was measured by replacing the culture medium with fresh medium containing the indicated compounds. The medium was collected at the indicated times. The cortisol concentration in the medium was measured using indirect ELISA (Arbor Assays).
After 48 h, the medium was removed and replaced with 50 μl of fresh medium. After the indicated incubation time, aliquots of the supernatant ranging from 0.5 to 10 μl were diluted in 50 μl of medium were used to measure the amount of cortisol secreted. Cortisol detection and quantification were performed by indirect ELISA according to the manufacturer's protocol (Arbor Assays #K003).

MDR1 = target: T1, MDR1 (Homo sapiens, UniProt P08183); assay: Doxorubicin accumulation / clearance in H295R cells; assay type: cell-based; conditions: 25 μM doxorubicin, 20 μM compound, 2 h
T1 construct: measured the accumulation of doxorubicin in H295R cells; endogenous in cells; host or cells: H295R adrenocortical carcinoma cells
Experimental: The medium was removed and immediately replaced with 100 μl of fresh media and intracellular doxorubicin fluorescence was visualized by fluorescence microscopy using a 20× objective.

[5] = H295R cells cultured with the compound together with ATR-101, 4 h
[6] = H295R cells, serum-free medium containing apoA-I, together with ATR-101

CCN(CC)CCO[C@H]1CC[C@@]2(C)C(=CC[C@@H]3[C@@H]2CC[C@]2(C)C(=O)CC[C@@H]32)C1 [U18666A, 3β-(2-diethylaminoethoxy)-5-androsten-17-one]
cholesterol accumulation in combination with ATR-101 versus separately (H295R cells [1]; H295R cells, 20 μM ATR-101 with 5 μM benzamil (1 h) or 8 μM U18666A (serum-free)): greater than additive increase in cholesterol accumulation | ATP level in combination with ATR-101 versus separately (H295R cells [2]; H295R cells, 4 h): caused ATP depletion at concentrations that had no detectable effect on the ATP level separately

Cc1c(C)c2c(c(C)c1O)CC[C@@](C)(CCC[C@H](C)CCC[C@H](C)CCCC(C)C)O2 [α-tocopherol]
effect on the inhibition of cholesterol efflux by ATR-101 (H295R cells [3]; together with ATR-101): did not restore cholesterol efflux | effect on the inhibition of cortisol secretion by ATR-101 (H295R cells [4]; 40 μM of the compound together with ATR-101, 4 h): neither compound prevented the inhibition of cortisol secretion | effect on ATP depletion by ATR-101 (H295R cells [2]; [5]): restored normal or nearly normal ATP levels | effect on ATP depletion by ATR-101 (H295R cells [2]; [6]): restored the ATP level

COc1ccc(CCN(C)CCCC(C#N)(c2ccc(OC)c(OC)c2)C(C)C)cc1OC (stereo not shown) [verapamil]
cholesterol level (filipin III binding), compound alone (H295R cells [1]; H295R cells): increased the level of cholesterol in intracellular membranes; also recorded: caused cholesterol accumulation | cortisol secretion, compound alone (H295R cells [4]; cortisol in medium, 4 h or time course): inhibited cortisol secretion | ATP level, compound alone (H295R cells [2]; H295R cells, 4 h): did not reduce the ATP levels

CCCCC/C=C\C/C=C\CCCCCCCC(=O)O[C@H]1CC[C@@]2(C)C(=CC[C@H]3[C@@H]4CC[C@H]([C@H](C)CCCC(C)C)[C@@]4(C)CC[C@@H]32)C1 [cholesterol linoleate]
effect on cholesterol accumulation caused by ATR-101 (H295R cells [1]; H295R cells cultured with the compound together with ATR-101, 4 h or 24 h): did not prevent the accumulation of cellular cholesterol | effect on ATP depletion by ATR-101 (H295R cells [2]; H295R cells cultured with the compound together with ATR-101, 24 h): did not prevent

CC(=O)N1CCN(c2ccc(OCC3COC(Cn4ccnc4)(c4ccc(Cl)cc4Cl)O3)cc2)CC1 (stereo not shown) [ketoconazole]
ATP depletion at high concentrations of inhibitors of steroidogenesis (H295R cells [2]; H295R cells): enhanced ATP depletion

CC(C)CCC[C@@H](C)[C@H]1CC[C@H]2[C@@H]3CCC4=CC(=NO)CC[C@]4(C)[C@H]3CC[C@]12C [olesoxime]
effect on the inhibition of cholesterol efflux by ATR-101 (H295R cells [3]; together with ATR-101, listed as Olesoxime): no detectable effect on the inhibition of cholesterol efflux | effect on ATP depletion by ATR-101 (H295R cells [2]; [5]): reduced ATP depletion by ATR-101 | effect on ATP depletion by ATR-101 (H295R cells [2]; [6]): reduced ATP depletion by ATR-101

CC(=O)O[C@H]1CC[C@@]2(C)C(=CC[C@@H]3[C@@H]2CC[C@]2(C)C(c4cccnc4)=CC[C@@H]32)C1 [abiraterone acetate]
ATP depletion at high concentrations of inhibitors of steroidogenesis (H295R cells [2]; H295R cells): enhanced ATP depletion

NC(=NCc1ccccc1)NC(=O)c1nc(Cl)c(N)nc1N [benzamil]
doxorubicin accumulation (MDR1): did not increase doxorubicin accumulation

COc1ccc(Cl)cc1C(=O)NCCc1ccc(S(=O)(=O)NC(=O)NC2CCCCC2)cc1 [glibenclamide]
cholesterol level (filipin III binding), compound alone (H295R cells [1]; H295R cells): lack of cholesterol accumulation | cholesterol level (filipin III binding), compound alone (H295R cells [1]; H295R cells, listed as Glibenclamide): did not cause cholesterol accumulation | cholesterol efflux, compound alone (H295R cells [3]; 4 h): blocked cholesterol efflux | ATP level in combination with ATR-101 versus separately (H295R cells [2]; H295R cells, 4 h): did not cause a larger than additive reduction in the ATP levels; also recorded: did not increase the efficiency of ATP depletion | ATP level, compound alone (H295R cells [2]; H295R cells, 4 h): did not reduce the ATP level

rhodamine-123
ATP level in combination with ATR-101 versus separately (H295R cells [2]; H295R cells, 4 h): larger than additive reductions in the ATP levels | ATP level in combination with ATR-101 versus separately (H295R cells [2]; H295R cells, 4 h, listed as rhodamine 123): caused ATP depletion at concentrations that did not deplete ATP individually | fold lower concentration that reduced the ATP level in combination than required separately (H295R cells [2]; H295R cells, ATR-101 and rhodamine-123 in combination, 4 h): 5 fold
